Series [1] in a line: Intrinsic cytotoxicity, EZ4U assay, HeLa. Particulars: human, HeLa cells.
Description: (§1) Next, we examined the intrinsic cytotoxicity of the compounds on HeLa cervical cancer cells and human embryonic kidney derived cells HEK293A.
(§2) Cytotoxicity of the compounds to HeLa (human cervical cancer) and HEK293A (human embryonic kidney) cell lines was examined using the EZ4U Cell Proliferation and Cytotoxicity Assay (Biomedica, Vienna, Austria), according to the manufacturer’s protocols. The cells were grown in Iscove’s modified Dulbecco’s medium (IMDM) with 40 μg/mL gentamicin, 50 IU/mL penicillin, 50 μg/mL streptomycin (MP Biomedicals, Waltham, MA, USA), and 10% of fetal bovine serum (Biolot, Saint Petersburg, Russia) in a 5% CO2 atmosphere. After the formation of a 30–50%monolayer, the tested compounds were added to the medium. […] The volume of the added reagents was 1/100 of the total volume of the culture medium, and the amount of DMSO was 1% of the final volume. Control cells were grown in the presence of 1% DMSO. The cell culture was monitored for three days.
A short description of series [2]: Intrinsic cytotoxicity, EZ4U assay, HEK293A. The settings on record: human, HEK293A cells.
Description: as §1, §2
Another series concerns the target TDP1 (Homo sapiens, UniProt Q9NUW8). The series is described as follows: Real-time fluorescence detection of TDP1 activity (FAM/BHQ1 oligonucleotide biosensor). It counts as biochemical. From the text:
For real-time detection of TDP1 activity, we used the oligonucleotide biosensor based on the ability of TDP1 to remove fluorophore quenchers from the 3′-end of DNA [29]. The hexadecameric oligonucleotide carried 5(6)-carboxyfluorescein (FAM) at the 5′-end and fluorophore quencher BHQ1 (Black Hole Quencher-1) at the 3′-end. TDP1 inhibitors prevent the removal of fluorophore quenchers, thus reducing fluorescence intensity.
TDP1 activity was detected, as described by intensity measurement in a reaction of quencher removal from a fluorophore quencher–coupled DNA oligonucleotide catalyzed by TDP1. The reaction was carried out at different concentrations of inhibitors (the control samples contained 1% of DMSO). The reaction mixtures contained TDP1 buffer (50 mM Tris-HCl pH 8.0, 50 mM NaCl, and 7 mM β-mercaptoethanol), 50 nM biosensor, and an inhibitor being tested. Purified TDP1 (1.5 nM) triggered the reaction. The biosensor (5′-[FAM] AAC GTC AGGGTC TTC C [BHQ]-3′) was synthesized in the Laboratory of Nucleic Acid Chemistry at the Institute of Chemical Biology and Fundamental Medicine (Novosibirsk, Russia).
The reactions were incubated on a POLARstar OPTIMA fluorimeter (BMG LABTECH, GmbH, Ortenberg, Germany) to measure fluorescence every 60 s (ex. 485/em. 520 nm) during the linear phase (here, data from minute 0 to minute 8). The values of IC50 were determined using a six-point concentration response curve in a minimum of three independent experiments and were calculated using MARS Data Analysis 2.0 (BMG LABTECH, Ortenberg, Germany).

The next series addresses T1, recombinant human TDP2 (Homo sapiens, UniProt O95551).
T1 sequence (O95551 1-362): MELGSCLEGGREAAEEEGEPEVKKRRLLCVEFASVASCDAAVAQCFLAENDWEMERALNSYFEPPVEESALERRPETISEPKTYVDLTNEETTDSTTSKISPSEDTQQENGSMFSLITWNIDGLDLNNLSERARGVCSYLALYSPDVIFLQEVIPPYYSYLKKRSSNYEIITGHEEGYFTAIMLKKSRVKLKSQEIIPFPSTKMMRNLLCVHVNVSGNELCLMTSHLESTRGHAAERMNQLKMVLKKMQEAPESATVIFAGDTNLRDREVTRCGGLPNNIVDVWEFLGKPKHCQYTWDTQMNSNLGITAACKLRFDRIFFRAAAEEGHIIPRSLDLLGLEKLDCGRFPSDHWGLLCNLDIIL
The series is described as follows: Gel-based TDP2 activity assay (removal of 5'-tyrosine from oligonucleotide, PAGE). The format is biochemical. Set-up: key to Tdp2 activity, c 200 µM / Tdp2 (inhibitor concentration 1 mM): TDP2 active (+); -: inactive (−). Particulars: for Tdp2 activity, c 200 µM: c 200 µM (Table S3 head); for Tdp2 (inhibitor concentration 1 mM) / remaining activity at 1000 µM: inhibitor 1 mM; for remaining activity at 1000 µM: residual enzyme activity, read-out: TDP2 (Inhibitor Concentration 1 mM), residual activity of TDP2. The method, then:
We investigated the activity against the TDP2 enzyme for compounds 4–10, 12–15, and 17–19 (Table 1). TDP2 was tested for its ability to eliminate tyrosine residue from the 5’-end of the oligonucleotide substrate. The TDP2 reaction products were separated under denaturing conditions in polyacrylamide gel (PAGE). […] Note that as different assays formats were used for TDP1 and TDP2 inhibition, the value of these assays cannot be directly compared. A paper on derivatives of usnic acid as effective TDP1 inhibitors and mild inhibitors of TDP2 was recently published. […] More inhibitors of this enzyme have also been reported in the literature. Obviously, further work for increasing activity against TDP2 is needed.
The oligonucleotide with tyrosine residue on the 5′-end (5′-tyrosine-AAC GTC AGG GTC TTC C-FAM-3′) was used for the TDP2 enzyme activity assay. The TDP2 reaction products were separated under denaturing conditions in polyacrylamide gel (PAGE). The reaction was performed in a final volume of 20 μL using 100 nM substrate incubated with 200 nM recombinant human TDP2 in the absence or presence of the inhibitor for 10 min at 37 °C in a buffer containing 50 mM Tris-HCl, pH 8.0, 50 mM NaCl, 7 mM β-mercaptoethanol. Reactions were terminated by the addition of gel loading buffer contained 10% formamide, 7 M carbamide, 0.1% xylene cyanol, and 0,1% bromophenol blue. The samples were heated at 90 °C for 7 min before loading on the gel. The reaction products were separated by electrophoresis in a 20% denaturing PAGE with 7 M carbamide. A Typhoon FLA 9500 phosphorimager (GE Healthcare) was used for gel scanning and imaging. Each experiment was carried out in three independent replicates. The data were analyzed with QuantityOne 4.6.7 software.

Where [3] appears, read: concentration that inhibits the activity of the enzyme by 50%, read-out: TDP1 IC50.
The mark [4] stands for this setting: read-out: IC50 (Tdp1, Table S4).

Where two headings read alike, the source gives them in different places.

TDP1, sequence (Q9NUW8 whole entry): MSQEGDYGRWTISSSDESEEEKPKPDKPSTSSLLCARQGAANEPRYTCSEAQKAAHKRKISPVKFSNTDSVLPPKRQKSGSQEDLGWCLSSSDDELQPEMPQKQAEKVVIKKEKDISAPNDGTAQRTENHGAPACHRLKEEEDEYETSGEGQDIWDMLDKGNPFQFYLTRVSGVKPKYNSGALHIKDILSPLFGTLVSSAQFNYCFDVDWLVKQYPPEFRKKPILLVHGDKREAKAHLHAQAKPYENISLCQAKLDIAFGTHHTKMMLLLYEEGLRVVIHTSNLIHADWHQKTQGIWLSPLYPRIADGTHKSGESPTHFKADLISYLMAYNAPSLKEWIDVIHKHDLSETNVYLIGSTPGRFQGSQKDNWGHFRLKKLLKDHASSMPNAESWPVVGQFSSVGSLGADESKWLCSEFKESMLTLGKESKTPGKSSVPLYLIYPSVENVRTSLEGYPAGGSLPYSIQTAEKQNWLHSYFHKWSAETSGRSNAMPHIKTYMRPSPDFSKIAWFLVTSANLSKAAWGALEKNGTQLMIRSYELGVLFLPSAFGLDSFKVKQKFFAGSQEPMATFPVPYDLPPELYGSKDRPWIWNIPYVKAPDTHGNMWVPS
Description for HeLa cells: as §1, §2

For `CC[C@@]1(O)C(=O)OCc2c1cc1n(c2=O)Cc2cc3c(CN(C)C)c(O)ccc3nc2-1` [Topotecan, reference compound], the semi-toxic concentrations result in the series on HeLa cells is reported as “submicromolar”. Besides, the 50% cytotoxic concentration (CC50) at 72 h in series [1] was 900 ± 100 nM; in series [2] it was 330 ± 70 nM.

On to `C[C@H](CCC(=O)Nc1ccc(Br)cc1)[C@H]1CC[C@H]2[C@@H]3CC[C@@H]4C[C@H](OCc5ccccc5)CC[C@]4(C)[C@H]3CC(=O)[C@]12C` [Compound 9, N-(4′-Bromophenyl)-3α-benzyloxy-12-oxo-5β-cholane-24-amide], for which, on TDP1 (setting [3]), the IC50 worked out at 710 ± 340 nM. Moreover, at recombinant human TDP2, the “Tdp2 activity, c 200 µM” value was “+”; the “Tdp2 (inhibitor concentration 1 mM)” value is reported as “+”; the remaining activity at 1000 µM is 39 ± 6%. The 50% cytotoxic concentration (CC50) at 72 h in series [1] is greater than 100000 nM. This compound also showed a 50% cytotoxic concentration (CC50) at 72 h in series [2] greater than 100000 nM.

Turning to `COc1cc([C@@H]2c3cc4c(cc3[C@@H](O[C@@H]3O[C@@H]5CO[C@@H](C)O[C@H]5[C@H](O)[C@H]3O)[C@H]3COC(=O)[C@H]23)OCO4)cc(OC)c1O` [Etoposide, reference compound], the semi-toxic concentrations entry in the series on HeLa cells is “micromolar”. In addition, the cytotoxic concentration (CC50) at 72 h in series [1] came to 6200 ± 600 nM; in series [2], 5900 ± 1800 nM.

For the compound `C[C@H](CCC(=O)N/N=C/c1ccc(Br)cc1)[C@H]1CC[C@H]2[C@@H]3CC[C@@H]4C[C@H](OCc5ccccc5)CC[C@]4(C)[C@H]3C[C@H](OCc3ccccc3)[C@]12C` [Compound 18, N’-(4″-Bromobenzylidene)-3α,12α-dibenzyloxy-5β-cholan-24-hydrazide], the melting point fell in the range of 147.7 to 150 °C. For the same compound, on TDP1 (setting [3]), the IC50 turned out to be 510 ± 210 nM. Moreover, on recombinant human TDP2, the “Tdp2 activity, c 200 µM” value was “+”; the “Tdp2 (inhibitor concentration 1 mM)” value was “+”; the remaining activity at 1000 µM is less than 50%.

On to `C[C@H](CCC(=O)NCCc1c[nH]c2ccccc12)[C@H]1CC[C@H]2[C@@H]3CC[C@@H]4C[C@H](OCc5ccccc5)CC[C@]4(C)[C@H]3CC(=O)[C@]12C` [Compound 6, N-(2″-(1H-Indol-3′-yl)ethyl)-3α-benzyloxy-12-oxo-5β-cholane-24-amide], for which the IC50 at TDP1 (setting [3]) stood at 590 ± 130 nM. For the same compound, on recombinant human TDP2, the “Tdp2 activity, c 200 µM” value is on record as “+”; the “Tdp2 (inhibitor concentration 1 mM)” value is listed as “+”; the remaining activity at 1000 µM was determined as 45 ± 4%. Moreover, the CC50 at 72 h in series [1] was greater than 100000 nM. In addition, the CC50 at 72 h in series [2] is greater than 100000 nM.

Consider `C[C@H](CCC(=O)NCCc1c[nH]c2ccccc12)[C@H]1CC[C@H]2[C@@H]3CC[C@@H]4C[C@H](OCc5ccccc5)CC[C@]4(C)[C@H]3C[C@H](OCc3ccccc3)[C@]12C` [Compound 4, N-(2″-(1H-Indol-3′-yl)ethyl)-3α,12α-dibenzyloxy-5β-cholane-24-amide], for which, at TDP1 (setting [3]), the IC50 amounted to 750 ± 170 nM. For the same compound, on recombinant human TDP2, the “Tdp2 activity, c 200 µM” value is given as “+”; the “Tdp2 (inhibitor concentration 1 mM)” value is recorded as “+”; the remaining activity at 1000 µM was found to be 35 ± 4%. Moreover, the CC50 at 72 h in series [1] is greater than 100000 nM. For the same compound, the CC50 at 72 h in series [2] is greater than 100000 nM.

Regarding `C[C@H](CCC(=O)O/N=C(\N)c1ccc(Br)cc1)[C@H]1CC[C@H]2[C@@H]3CC[C@@H]4C[C@H](OCc5ccccc5)CC[C@]4(C)[C@H]3C[C@H](OCc3ccccc3)[C@]12C` [Compound 14], the melting point was in the range of 144.5 to 147.4 °C. The half-inhibitory concentration (IC50) on TDP1 (setting [3]) came to 330 ± 150 nM. On recombinant human TDP2, the “Tdp2 activity, c 200 µM” value was “+”; the “Tdp2 (inhibitor concentration 1 mM)” value is recorded as “+”; the remaining activity at 1000 µM is less than 50%.

`C[C@H](CCC(=O)O)[C@H]1CC[C@H]2[C@@H]3CC[C@@H]4C[C@H](OCc5ccccc5)CC[C@]4(C)[C@H]3CC(=O)[C@]12C` [Compound 3, 3α-Benzyloxy-12α-oxo-5β-cholan-24-oic Acid] registered a melting point of 147.9 °C. Moreover, at TDP1 (setting [4]), the half-maximal inhibitory concentration (IC50) stood at 780 nM. Besides, on recombinant human TDP2, the “Tdp2 activity, c 200 µM” value is “+” and the “Tdp2 (inhibitor concentration 1 mM)” value is on record as “+”.

Regarding `C[C@H](CCC(=O)NCCCc1cc(C(C)(C)C)c(O)c(C(C)(C)C)c1)[C@H]1CC[C@H]2[C@@H]3CC[C@@H]4C[C@H](OCc5ccccc5)CC[C@]4(C)[C@H]3C[C@H](OCc3ccccc3)[C@]12C` [Compound 10, N-(3″-(3′,5′-Di-tert-butyl-4′-hydroxyphenyl)propyl)-3α,12α-dibenzyloxy-5β-cholane-24-amide], the half-maximal inhibitory concentration (IC50) on TDP1 (setting [3]) came out at 370 ± 170 nM. Also, on recombinant human TDP2, the “Tdp2 activity, c 200 µM” value is reported as “+”; the “Tdp2 (inhibitor concentration 1 mM)” value was “+”; the remaining activity at 1000 µM is 45 ± 6%. In series [1], this compound registered a CC50 at 72 h greater than 100000 nM. The CC50 at 72 h in series [2] is greater than 100000 nM.

With `C[C@H](CCC(=O)O)[C@H]1CC[C@H]2[C@@H]3CC[C@@H]4C[C@H](OCc5ccccc5)CC[C@]4(C)[C@H]3C[C@H](OCc3ccccc3)[C@]12C` [Compound 1, 3α,12α-Dibenzyloxy-5β-cholan-24-oic acid], the melting point was 181.2 °C (dec.). On TDP1 (setting [4]), the IC50 is 440 nM. Also, on recombinant human TDP2, the “Tdp2 activity, c 200 µM” value is listed as “+” and the “Tdp2 (inhibitor concentration 1 mM)” value is “+”.

In turn, `C[C@H](CCC(=O)NN)[C@H]1CC[C@H]2[C@@H]3CC[C@@H]4C[C@H](OCc5ccccc5)CC[C@]4(C)[C@H]3C[C@H](OCc3ccccc3)[C@]12C` [Compound 17, 3α,12α-Dibenzyloxy-5β-cholan-24-hydrazide] registered a melting point of 179 to 180 °C. Further, the IC50 on TDP1 (setting [3]) is 230 ± 80 nM. For the same compound, at recombinant human TDP2, the “Tdp2 activity, c 200 µM” value is reported as “+”; the “Tdp2 (inhibitor concentration 1 mM)” value is recorded as “+”; the remaining activity at 1000 µM is greater than 50%.

As usually defined, the CC50 is the concentration that lowers cell viability or growth by half. By IC50 is commonly meant the concentration needed to halve the response being measured. Broadly, the melting point is the temperature of the solid-liquid transition.

The values above are taken from PMC8746696 (Molecules, 2021).
